Blank lines part the entries; values can stand above or below the compound they belong to.
What was measured:
Experiment in all cases: Caliper, Mobility shift assay off-chip
IRAK1 (human) = IRAK1 (human) (UniProt P51617)
PRKCZ (human) = PRKCZ (human) (UniProt Q05513)
INSR (human) = INSR (human) (UniProt P06213)
MERTK (human) = MERTK (human) (UniProt Q12866)
PKN2 (human) = PKN2 (human) (UniProt Q16513)
PRKCB1 (human) = PRKCB1 (human) (UniProt P05771)
FES (human) = FES (human) (UniProt P07332)
NLK (human) = NLK (human) (UniProt Q9UBE8)
DDR2 (human) = DDR2 (human) (UniProt Q16832)
EPHA1 (human) = EPHA1 (human) (UniProt P21709)
DYRK2 (human) = DYRK2 (human) (UniProt Q92630)
GCK (human) = GCK (human) (UniProt Q12851)
CSNK1D (human) = CSNK1D (human) (UniProt P48730)
MARK2 (human) = MARK2 (human) (UniProt Q7KZI7)
Chain of MARK2 (human) (Q7KZI7 whole entry, looked up): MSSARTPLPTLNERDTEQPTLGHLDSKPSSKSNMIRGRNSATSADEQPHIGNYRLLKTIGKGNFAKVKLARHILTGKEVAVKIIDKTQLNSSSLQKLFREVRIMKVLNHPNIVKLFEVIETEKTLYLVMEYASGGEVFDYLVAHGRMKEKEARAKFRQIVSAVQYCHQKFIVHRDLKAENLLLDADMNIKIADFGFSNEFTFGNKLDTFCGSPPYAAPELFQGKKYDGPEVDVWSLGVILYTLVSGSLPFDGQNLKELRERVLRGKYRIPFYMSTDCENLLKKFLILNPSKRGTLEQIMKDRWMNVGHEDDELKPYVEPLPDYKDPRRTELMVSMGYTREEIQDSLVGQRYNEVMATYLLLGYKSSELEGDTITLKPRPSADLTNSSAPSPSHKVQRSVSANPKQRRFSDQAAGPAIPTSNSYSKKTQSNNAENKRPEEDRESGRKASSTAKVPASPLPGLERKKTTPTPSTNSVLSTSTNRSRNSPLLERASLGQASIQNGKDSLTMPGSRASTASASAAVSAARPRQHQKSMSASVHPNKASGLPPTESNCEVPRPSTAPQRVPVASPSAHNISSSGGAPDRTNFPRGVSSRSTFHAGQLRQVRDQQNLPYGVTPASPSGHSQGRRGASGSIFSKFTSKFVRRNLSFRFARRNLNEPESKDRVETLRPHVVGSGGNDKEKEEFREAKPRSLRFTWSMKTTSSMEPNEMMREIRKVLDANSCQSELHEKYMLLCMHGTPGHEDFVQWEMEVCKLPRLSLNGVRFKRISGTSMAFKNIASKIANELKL

PRKCE (human) = PRKCE (human) (UniProt Q02156)
Chain of PRKCE (human) (Q02156 whole entry, looked up): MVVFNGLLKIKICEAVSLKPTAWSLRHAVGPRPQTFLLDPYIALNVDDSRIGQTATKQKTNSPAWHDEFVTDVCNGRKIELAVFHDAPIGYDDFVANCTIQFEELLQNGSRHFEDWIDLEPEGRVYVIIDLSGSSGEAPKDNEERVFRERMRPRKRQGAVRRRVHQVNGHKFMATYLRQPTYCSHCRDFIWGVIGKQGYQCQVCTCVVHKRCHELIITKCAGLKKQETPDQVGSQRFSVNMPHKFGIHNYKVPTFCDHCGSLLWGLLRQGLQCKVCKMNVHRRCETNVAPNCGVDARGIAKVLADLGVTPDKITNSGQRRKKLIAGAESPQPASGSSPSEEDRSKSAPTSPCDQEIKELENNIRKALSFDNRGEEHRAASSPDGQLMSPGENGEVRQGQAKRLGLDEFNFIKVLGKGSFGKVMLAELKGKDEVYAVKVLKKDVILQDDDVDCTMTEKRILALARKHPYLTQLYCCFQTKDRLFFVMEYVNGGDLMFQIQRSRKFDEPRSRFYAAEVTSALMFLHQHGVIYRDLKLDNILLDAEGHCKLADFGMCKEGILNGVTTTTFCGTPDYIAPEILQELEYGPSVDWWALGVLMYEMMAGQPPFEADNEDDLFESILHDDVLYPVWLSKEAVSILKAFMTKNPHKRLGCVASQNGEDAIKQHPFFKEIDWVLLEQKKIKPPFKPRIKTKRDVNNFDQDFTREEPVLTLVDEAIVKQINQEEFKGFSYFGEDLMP

CHUK (human) = CHUK (human) (UniProt O15111)
STK11 (human) = STK11 (human) (UniProt Q15831)
FYN (human) = FYN (human) (UniProt P06241)
ACVR1B (human) = ACVR1B (human) (UniProt P36896)
CAMK2D (human) = CAMK2D (human) (UniProt Q13557)
PDPK1 (human) = PDPK1 (human) (UniProt O15530); conditions: compound 1.0 µM
CAMK2B (human) = CAMK2B (human) (UniProt Q13554)
CDC42BPB (human) = CDC42BPB (human) (UniProt Q9Y5S2)
Chain of CDC42BPB (human) (Q9Y5S2 whole entry, looked up): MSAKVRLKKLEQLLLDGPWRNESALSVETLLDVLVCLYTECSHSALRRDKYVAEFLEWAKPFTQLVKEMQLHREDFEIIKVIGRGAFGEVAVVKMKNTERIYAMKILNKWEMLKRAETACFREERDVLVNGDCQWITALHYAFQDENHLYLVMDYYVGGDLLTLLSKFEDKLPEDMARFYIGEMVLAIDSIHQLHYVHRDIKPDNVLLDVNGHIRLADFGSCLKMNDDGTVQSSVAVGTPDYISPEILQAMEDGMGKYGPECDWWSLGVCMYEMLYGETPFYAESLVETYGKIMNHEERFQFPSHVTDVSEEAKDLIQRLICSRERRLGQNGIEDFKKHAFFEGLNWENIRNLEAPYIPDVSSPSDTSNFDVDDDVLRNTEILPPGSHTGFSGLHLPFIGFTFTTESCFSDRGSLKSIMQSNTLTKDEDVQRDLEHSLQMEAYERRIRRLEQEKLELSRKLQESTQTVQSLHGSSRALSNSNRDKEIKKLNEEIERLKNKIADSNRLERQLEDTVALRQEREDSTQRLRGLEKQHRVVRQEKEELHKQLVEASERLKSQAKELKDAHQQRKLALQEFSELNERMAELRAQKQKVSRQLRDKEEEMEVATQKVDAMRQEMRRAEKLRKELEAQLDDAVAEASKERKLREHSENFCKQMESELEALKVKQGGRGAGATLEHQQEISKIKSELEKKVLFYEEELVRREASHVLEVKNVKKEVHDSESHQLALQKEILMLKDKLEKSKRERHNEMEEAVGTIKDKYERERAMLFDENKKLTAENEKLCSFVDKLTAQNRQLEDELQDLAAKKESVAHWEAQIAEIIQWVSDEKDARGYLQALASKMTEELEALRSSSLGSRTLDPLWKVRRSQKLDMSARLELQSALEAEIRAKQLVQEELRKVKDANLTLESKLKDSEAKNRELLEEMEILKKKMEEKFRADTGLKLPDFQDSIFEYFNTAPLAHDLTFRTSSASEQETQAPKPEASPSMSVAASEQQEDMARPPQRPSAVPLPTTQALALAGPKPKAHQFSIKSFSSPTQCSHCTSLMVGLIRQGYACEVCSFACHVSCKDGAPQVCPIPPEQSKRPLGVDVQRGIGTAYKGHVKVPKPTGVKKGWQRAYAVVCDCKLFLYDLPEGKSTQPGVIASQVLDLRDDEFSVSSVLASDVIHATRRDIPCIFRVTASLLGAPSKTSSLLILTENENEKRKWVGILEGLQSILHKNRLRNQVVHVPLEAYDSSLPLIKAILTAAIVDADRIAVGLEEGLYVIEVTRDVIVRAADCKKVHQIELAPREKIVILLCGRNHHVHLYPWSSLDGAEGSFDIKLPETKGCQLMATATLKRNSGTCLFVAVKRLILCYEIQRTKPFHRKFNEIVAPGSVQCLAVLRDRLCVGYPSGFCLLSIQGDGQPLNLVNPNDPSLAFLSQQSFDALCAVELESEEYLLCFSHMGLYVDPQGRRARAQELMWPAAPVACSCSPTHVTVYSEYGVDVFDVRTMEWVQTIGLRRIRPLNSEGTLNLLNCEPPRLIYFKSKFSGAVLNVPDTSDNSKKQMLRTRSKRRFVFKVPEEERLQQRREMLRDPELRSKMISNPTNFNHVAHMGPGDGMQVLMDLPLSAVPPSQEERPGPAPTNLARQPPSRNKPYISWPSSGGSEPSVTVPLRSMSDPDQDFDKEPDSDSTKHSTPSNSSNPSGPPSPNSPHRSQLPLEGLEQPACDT

MAP3K9 (human) = MAP3K9 (human) (UniProt P80192)
MAP3K5 (human) = MAP3K5 (human) (UniProt Q99683)
BRSK1 (human) = BRSK1 (human) (UniProt Q8TDC3)
TYRO3 (human) = TYRO3 (human) (UniProt Q06418)
Chain of TYRO3 (human) (Q06418 whole entry, looked up): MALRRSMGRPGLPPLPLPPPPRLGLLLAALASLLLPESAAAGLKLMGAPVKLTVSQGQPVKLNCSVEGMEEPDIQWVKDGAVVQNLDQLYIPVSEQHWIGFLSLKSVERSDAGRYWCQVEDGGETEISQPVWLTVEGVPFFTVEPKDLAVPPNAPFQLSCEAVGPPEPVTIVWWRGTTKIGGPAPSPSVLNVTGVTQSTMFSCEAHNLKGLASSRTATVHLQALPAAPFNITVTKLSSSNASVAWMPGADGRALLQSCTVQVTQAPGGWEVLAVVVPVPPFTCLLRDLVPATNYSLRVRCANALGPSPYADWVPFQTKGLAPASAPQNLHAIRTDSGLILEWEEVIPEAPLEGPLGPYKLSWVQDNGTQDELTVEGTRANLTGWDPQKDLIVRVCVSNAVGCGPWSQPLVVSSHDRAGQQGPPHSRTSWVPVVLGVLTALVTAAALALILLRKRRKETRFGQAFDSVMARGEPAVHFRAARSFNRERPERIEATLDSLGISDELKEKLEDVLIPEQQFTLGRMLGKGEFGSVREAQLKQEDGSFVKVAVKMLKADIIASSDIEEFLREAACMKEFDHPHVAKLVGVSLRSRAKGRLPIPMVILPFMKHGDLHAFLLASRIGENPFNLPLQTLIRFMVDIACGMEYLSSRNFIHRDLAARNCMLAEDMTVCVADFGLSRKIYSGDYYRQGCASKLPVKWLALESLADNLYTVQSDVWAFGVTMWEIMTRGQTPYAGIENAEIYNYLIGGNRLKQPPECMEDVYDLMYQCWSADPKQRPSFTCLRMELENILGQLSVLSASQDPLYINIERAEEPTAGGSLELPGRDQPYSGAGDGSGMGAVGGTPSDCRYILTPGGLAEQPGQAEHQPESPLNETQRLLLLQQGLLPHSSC

[1] = tested on: ABL1 (human), P00519 [T315I]
MARK1 (human) = MARK1 (human) (UniProt Q9P0L2)
Chain of MARK1 (human) (Q9P0L2 whole entry, looked up): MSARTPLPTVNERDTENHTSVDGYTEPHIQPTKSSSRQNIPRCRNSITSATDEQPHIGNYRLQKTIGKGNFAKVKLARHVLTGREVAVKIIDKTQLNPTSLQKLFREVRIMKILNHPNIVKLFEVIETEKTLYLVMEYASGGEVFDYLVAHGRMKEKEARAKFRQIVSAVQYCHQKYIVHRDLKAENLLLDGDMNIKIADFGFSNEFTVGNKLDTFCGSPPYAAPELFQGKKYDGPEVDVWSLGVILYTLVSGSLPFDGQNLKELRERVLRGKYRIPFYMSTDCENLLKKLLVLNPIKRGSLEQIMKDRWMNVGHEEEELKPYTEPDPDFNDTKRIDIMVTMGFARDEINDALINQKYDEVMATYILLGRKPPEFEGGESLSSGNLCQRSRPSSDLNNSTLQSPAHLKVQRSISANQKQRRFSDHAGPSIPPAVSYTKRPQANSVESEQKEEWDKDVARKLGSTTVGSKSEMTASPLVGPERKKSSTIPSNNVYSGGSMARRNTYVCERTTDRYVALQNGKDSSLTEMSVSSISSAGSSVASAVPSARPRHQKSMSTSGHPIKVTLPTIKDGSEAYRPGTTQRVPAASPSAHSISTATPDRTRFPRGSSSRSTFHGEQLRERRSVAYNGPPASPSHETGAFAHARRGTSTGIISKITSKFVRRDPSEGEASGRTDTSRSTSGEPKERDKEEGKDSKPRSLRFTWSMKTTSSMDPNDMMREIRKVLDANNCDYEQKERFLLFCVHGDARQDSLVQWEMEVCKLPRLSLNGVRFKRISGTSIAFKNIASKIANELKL

HIPK1 (human) = HIPK1 (human) (UniProt Q86Z02)
CSNK2A2 (human) = CSNK2A2 (human) (UniProt P19784)
[2] = tested on: CHEK2 (human), O96017 [I157T]
MUSK (human) = MUSK (human) (UniProt O15146)
EEF2K (human) = EEF2K (human) (UniProt O00418)
CDK7 CCNH MNAT1 (human) = CDK7 CCNH MNAT1 (human) (UniProt P50613+P51948+P51946)
CDK9 CCNT1 (human) = CDK9 CCNT1 (human) (UniProt O60563+P50750)
PDGFRB (human) = PDGFRB (human) (UniProt P09619)
EPHB1 (human) = EPHB1 (human) (UniProt P54762)
SYK (human) = SYK (human) (UniProt P43405)
IRAK4 (human) = IRAK4 (human) (UniProt Q9NWZ3)
[3] = tested on: KIT (human), P10721 [D816V]

- residual activity (IRAK1 (human); compound 1.0 µM): 102%
- residual activity (PRKCZ (human); compound 1.0 µM): 108%
- residual activity (INSR (human); compound 1.0 µM): 107%
- residual activity (MERTK (human); compound 1.0 µM): 8%
- residual activity (PKN2 (human); compound 1.0 µM): 10%
- residual activity (PRKCB1 (human); compound 1.0 µM): 94%
- residual activity (FES (human); compound 1.0 µM): 92%
- residual activity (NLK (human); compound 1.0 µM): 85%
- residual activity (DDR2 (human); compound 1.0 µM): 101%
- residual activity (EPHA1 (human); compound 1.0 µM): 99%
- residual activity (DYRK2 (human); compound 1.0 µM): 102%
- residual activity (GCK (human); compound 1.0 µM): 44%
- residual activity (CSNK1D (human); compound 1.0 µM): 105%
- residual activity (MARK2 (human); compound 1.0 µM): 87%
- residual activity (PRKCE (human); compound 1.0 µM): 106%
- residual activity (CHUK (human); compound 1.0 µM): 102%
- residual activity (STK11 (human); compound 1.0 µM): 96%
- residual activity (FYN (human); compound 1.0 µM): 79%
- residual activity (ACVR1B (human); compound 1.0 µM): 93%
- residual activity (CAMK2D (human); compound 1.0 µM): 25%
- residual activity (PDPK1 (human)): 2%
- residual activity (CAMK2B (human); compound 1.0 µM): 78%
- residual activity (CDC42BPB (human); compound 1.0 µM): 99%
- residual activity (MAP3K9 (human); compound 1.0 µM): 1%
- residual activity (MAP3K5 (human); compound 1.0 µM): 104%
- residual activity (BRSK1 (human); compound 1.0 µM): 29%
- residual activity (TYRO3 (human); compound 1.0 µM): 94%
- residual activity ([1]; compound 1.0 µM): 88%
- residual activity (MARK1 (human); compound 1.0 µM): 61%
- residual activity (HIPK1 (human); compound 1.0 µM): 109%
- residual activity (CSNK2A2 (human); compound 1.0 µM): 112%
- residual activity ([2]; compound 1.0 µM): 9%
- residual activity (MUSK (human); compound 1.0 µM): 96%
- residual activity (EEF2K (human); compound 1.0 µM): 115%
- residual activity (CDK7 CCNH MNAT1 (human); compound 1.0 µM): 102%
- residual activity (CDK9 CCNT1 (human); compound 1.0 µM): 96%
- residual activity (PDGFRB (human); compound 1.0 µM): 102%
- residual activity (EPHB1 (human); compound 1.0 µM): 104%
- residual activity (SYK (human); compound 1.0 µM): 105%
- residual activity (IRAK4 (human); compound 1.0 µM): 122%
- residual activity ([3]; compound 1.0 µM): 93%
Compound: C[C@@H](Nc1nc2c(C#CC3CC3)c[nH]c(=O)c2c2cc(-c3cn[nH]c3)ccc12)C(C)(C)C

- residual activity (PRKCZ (human); compound 1.0 µM): 97%
- residual activity (INSR (human); compound 1.0 µM): 103%
- residual activity (PKN2 (human); compound 1.0 µM): 78%
- residual activity (FES (human); compound 1.0 µM): 41%
- residual activity (DDR2 (human); compound 1.0 µM): 107%
- residual activity (DYRK2 (human); compound 1.0 µM): 99%
- residual activity (MARK2 (human); compound 1.0 µM): 7%
- residual activity (PRKCE (human); compound 1.0 µM): 90%
- residual activity (CHUK (human); compound 1.0 µM): 96%
- residual activity (STK11 (human); compound 1.0 µM): 104%
- residual activity (FYN (human); compound 1.0 µM): 71%
- residual activity (ACVR1B (human); compound 1.0 µM): 138%
- residual activity (PDPK1 (human)): 3%
- residual activity (CDC42BPB (human); compound 1.0 µM): 105%
- residual activity (MAP3K5 (human); compound 1.0 µM): 117%
- residual activity (TYRO3 (human); compound 1.0 µM): 111%
- residual activity ([1]; compound 1.0 µM): 86%
- residual activity (MARK1 (human); compound 1.0 µM): 4%
- residual activity (MUSK (human); compound 1.0 µM): 91%
- residual activity (CDK7 CCNH MNAT1 (human); compound 1.0 µM): 55%
- residual activity (PDGFRB (human); compound 1.0 µM): 108%
- residual activity (SYK (human); compound 1.0 µM): 65%
- residual activity (IRAK4 (human); compound 1.0 µM): 85%
- residual activity ([3]; compound 1.0 µM): 107%
Compound: Cc1n[nH]c2c1c(=O)n(CCCN)c1ccc(Cl)cc21

Compound: O=C(N[C@@H](COc1ccc2[nH]c(=O)[nH]c2c1)c1ccccc1)c1cccn(Cc2ccc(F)c(F)c2)c1=O
- residual activity (IRAK1 (human); compound 10.0 µM): 100%
- residual activity (PRKCZ (human); compound 10.0 µM): 106%
- residual activity (INSR (human); compound 10.0 µM): 98%
- residual activity (MERTK (human); compound 10.0 µM): 95%
- residual activity (PKN2 (human); compound 10.0 µM): 96%
- residual activity (PRKCB1 (human); compound 10.0 µM): 95%
- residual activity (FES (human); compound 10.0 µM): 122%
- residual activity (NLK (human); compound 10.0 µM): 100%
- residual activity (DDR2 (human); compound 10.0 µM): 118%
- residual activity (EPHA1 (human); compound 10.0 µM): 107%
- residual activity (DYRK2 (human); compound 10.0 µM): 101%
- residual activity (GCK (human); compound 10.0 µM): 107%
- residual activity (CSNK1D (human); compound 10.0 µM): 110%
- residual activity (MARK2 (human); compound 10.0 µM): 96%
- residual activity (PRKCE (human); compound 10.0 µM): 96%
- residual activity (CHUK (human); compound 10.0 µM): 125%
- residual activity (STK11 (human); compound 10.0 µM): 111%
- residual activity (FYN (human); compound 10.0 µM): 89%
- residual activity (ACVR1B (human); compound 10.0 µM): 115%
- residual activity (CAMK2D (human); compound 10.0 µM): 92%
- residual activity (CAMK2B (human); compound 10.0 µM): 105%
- residual activity (CDC42BPB (human); compound 10.0 µM): 101%
- residual activity (MAP3K9 (human); compound 10.0 µM): 91%
- residual activity (MAP3K5 (human); compound 10.0 µM): 99%
- residual activity (BRSK1 (human); compound 10.0 µM): 109%
- residual activity (TYRO3 (human); compound 10.0 µM): 118%
- residual activity ([1]; compound 10.0 µM): 91%
- residual activity (MARK1 (human); compound 10.0 µM): 99%
- residual activity (HIPK1 (human); compound 10.0 µM): 99%
- residual activity (CSNK2A2 (human); compound 10.0 µM): 105%
- residual activity ([2]; compound 10.0 µM): 90%
- residual activity (MUSK (human); compound 10.0 µM): 98%
- residual activity (EEF2K (human); compound 10.0 µM): 98%
- residual activity (CDK7 CCNH MNAT1 (human); compound 10.0 µM): 95%
- residual activity (CDK9 CCNT1 (human); compound 10.0 µM): 102%
- residual activity (PDGFRB (human); compound 10.0 µM): 113%
- residual activity (EPHB1 (human); compound 10.0 µM): 104%
- residual activity (SYK (human); compound 10.0 µM): 102%
- residual activity (IRAK4 (human); compound 10.0 µM): 108%
- residual activity ([3]; compound 10.0 µM): 111%

— the kinase profiling compilation of Christmann-Franck et al. (2016)
